In PubChem BioAssay AID192 (DTP/NCI, 2004):
Several values for one entry are separate records, joined by “and”; a condition that tells them apart may be missing. Identical values can stand only once. Toxic doses and inconclusive results are not listed.

Test system: BDF1 mice, B16 melanoma ip, median survival T/C
Assay: NCI In Vivo Anticancer Drug Screen. Data for tumor model B16 Melanoma (intraperitoneal) in B6D2F1 (BDF1) mice
Conditions: endpoint: median survival time, higher = longer survival
How it was run: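 Tumor-bearing mice received test compound or vehicle. Survival or tumor size was then measured in both groups. The treated-group figure was divided by the control-group figure.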

[1] = dose: 6.25 mg/kg/injection, schedule: Q01DX009 (ip), vehicle: saline
[2] = dose: 12.5 mg/kg/injection, schedule: Q01DX009 (ip), vehicle: saline
[3] = dose: 25.0 mg/kg/injection, schedule: Q01DX009 (ip), vehicle: saline
[4] = dose: 50.0 mg/kg/injection, schedule: Q01DX009 (ip), vehicle: saline
[5] = dose: 100.0 mg/kg/injection, schedule: Q01DX009 (ip), vehicle: saline
[6] = dose: 200.0 mg/kg/injection, schedule: Q01DX009 (ip), vehicle: Klucel (hydroxypropylcellulose) (HPC)
[7] = dose: 50.0 mg/kg/injection, schedule: Q01DX009 (ip), vehicle: Klucel (hydroxypropylcellulose) (HPC)
[8] = dose: 100.0 mg/kg/injection, schedule: Q01DX009 (ip), vehicle: Klucel (hydroxypropylcellulose) (HPC)
[9] = dose: 400.0 mg/kg/injection, schedule: Q01DX009 (ip), vehicle: Klucel (hydroxypropylcellulose) (HPC)
[10] = dose: 50.0 mg/kg/injection, schedule: Q01DX009 (ip), vehicle: olive oil, sesame oil, peanut oil
[11] = dose: 50.0 mg/kg/injection, schedule: Q01DX009 (ip), vehicle: saline with Tween-80
[12] = dose: 100.0 mg/kg/injection, schedule: Q01DX009 (ip), vehicle: saline with Tween-80
[13] = dose: 6.25 mg/kg/injection, schedule: Q01DX009 (ip), vehicle: other
[14] = dose: 12.5 mg/kg/injection, schedule: Q01DX009 (ip), vehicle: other
[15] = dose: 12.5 mg/kg/injection, schedule: Q01DX009 (ip), vehicle: saline with Tween-80
[16] = dose: 25.0 mg/kg/injection, schedule: Q01DX009 (ip), vehicle: saline with Tween-80

For `CCN1CC(CCN2CCOCC2)C(c2ccccc2)(c2ccccc2)C1=O` (stereo unspecified), the T/C [1] was 91 % of control, the T/C [2] was 104 % of control and the T/C [3] was 100 % of control. The T/C [4] was 102 % of control and the T/C [5] was 100 % of control.
For `CC1(C)C(=O)NC(=O)C1(C)C`, the T/C [1] was 92 % of control, the T/C [2] was 96 % of control and the T/C [3] was 95 % of control. For the same molecule, the T/C [4] was 90 % of control.
For `O=[N+]([O-])c1cc2c(c([N+](=O)[O-])c1)OCOC2`, the T/C [6] was 100 % of control.
`O=NN(CCF)C(=O)NC1C(O)CCCC1O` (stereo unspecified) was tested, and the T/C (dose: 1.88 mg/kg/injection, schedule: Q01DX001 (ip), vehicle: saline) was 121 % of control, the T/C (dose: 7.5 mg/kg/injection, schedule: Q01DX001 (ip), vehicle: saline) was 199 % of control and the T/C (dose: 15.0 mg/kg/injection, schedule: Q01DX001 (ip), vehicle: saline) was 212 % of control. The T/C (dose: 30.0 mg/kg/injection, schedule: Q01DX001 (ip), vehicle: saline) was 263 % of control and the T/C (dose: 60.0 mg/kg/injection, schedule: Q01DX001 (ip), vehicle: saline) was 226 % of control.
In the case of `COc1cccc(C(O)c2ccncc2C)c1OC` (stereo unspecified), the T/C (dose: 25.0 mg/kg/injection, schedule: Q01DX009 (ip), vehicle: water) is reported as 98 % of control, the T/C (dose: 50.0 mg/kg/injection, schedule: Q01DX009 (ip), vehicle: water) is reported as 98 % of control and the T/C (dose: 100.0 mg/kg/injection, schedule: Q01DX009 (ip), vehicle: water) is reported as 101 % of control. For the same molecule, the T/C (dose: 200.0 mg/kg/injection, schedule: Q01DX009 (ip), vehicle: water) was 104 % of control.
For `COC(=O)C1CC(C)(C)N(C)C1(C)C` (stereo unspecified), the T/C [7] was 93 % of control and the T/C [8] was 94 % of control.
In the case of `CN(Cc1cnc2nc(N)nc(N)c2n1)c1ccc(C(=O)NC(CCC(=O)O)C(=O)O)cc1Br` (stereo unspecified), the T/C (dose: 0.17 mg/kg/injection, schedule: Q01DX011 (ip), vehicle: saline) is reported as 101 % of control, the T/C (dose: 0.35 mg/kg/injection, schedule: Q01DX011 (ip), vehicle: saline) is reported as 105 % of control and the T/C (dose: 0.63 mg/kg/injection, schedule: Q01DX009 (ip), vehicle: other) is reported as 101 % of control. The T/C (dose: 0.7 mg/kg/injection, schedule: Q01DX011 (ip), vehicle: saline) was 101 % of control and the T/C (dose: 1.25 mg/kg/injection, schedule: Q01DX009 (ip), vehicle: other) was 113 % of control.
In the case of `Cc1ccccc1N1C(=O)CSC1=S`, the T/C (dose: 12.5 mg/kg/injection, schedule: Q01DX009 (ip), vehicle: Klucel (hydroxypropylcellulose) (HPC)) is reported as 90 % of control and the T/C (dose: 25.0 mg/kg/injection, schedule: Q01DX009 (ip), vehicle: Klucel (hydroxypropylcellulose) (HPC)) is reported as 93 % of control.
With `O=c1[nH]c2ccccc2nc1CBr` the T/C (dose: 0.38 mg/kg/injection, schedule: Q01DX009 (ip), vehicle: saline with Tween-80) was 104 % of control, the T/C (dose: 0.75 mg/kg/injection, schedule: Q01DX009 (ip), vehicle: saline with Tween-80) was 100 % of control and the T/C (dose: 1.5 mg/kg/injection, schedule: Q01DX009 (ip), vehicle: saline with Tween-80) was 104 % of control. The T/C (dose: 3.0 mg/kg/injection, schedule: Q01DX009 (ip), vehicle: saline with Tween-80) was 92 % of control.
For `CC(=O)CC(=O)Nc1cccc(C)c1`, the T/C [8] was 105 % of control, the T/C [6] was 100 % of control and the T/C [9] was 92 % of control.
In the case of `COc1cc(-c2ccc(N=Nc3cc(S(=O)(=O)O)c4ccccc4c3O)c(OC)c2)ccc1N=Nc1cc(S(=O)(=O)O)c2ccccc2c1O`, the T/C [5] is reported as 102 % of control, the T/C (dose: 200.0 mg/kg/injection, schedule: Q01DX009 (ip), vehicle: saline) is reported as 89 % of control and the T/C (dose: 400.0 mg/kg/injection, schedule: Q01DX009 (ip), vehicle: saline) is reported as 93 % of control.
For `Oc1ccccc1/C=N/NC(=S)NC1CC2C=CC1C2` (stereo unspecified), the T/C [10] was 88 % of control.
`C#CCOCC1CO1` (stereo unspecified) was tested, and the T/C [11] was 97 % of control and the T/C [12] was 91 % of control.
In the case of `COc1cccc2c1C(=O)c1c(O)c3c(c(O)c1C2=O)C[C@H](O)C[C@@H]3OC1CC(N)C(O)C(C)O1` (stereo partly specified), the T/C (dose: 12.5 mg/kg/injection, schedule: Q01DX001 (ip), vehicle: water) is reported as 169 % of control, the T/C (dose: 50.0 mg/kg/injection, schedule: Q01DX001 (ip), vehicle: water) is reported as 110 % of control and 169 % of control and 267 % of control and the T/C (dose: 100.0 mg/kg/injection, schedule: Q01DX001 (ip), vehicle: water) is reported as 110 % of control.
With `c1ccc2c(NCCCCCCNc3c4ccccc4nc4ccccc34)c3ccccc3nc2c1` the T/C (dose: 1.25 mg/kg/injection, schedule: Q01DX009 (ip), vehicle: Klucel (hydroxypropylcellulose) (HPC)) was 124 % of control, the T/C (dose: 10.0 mg/kg/injection, schedule: Q01DX009 (ip), vehicle: Klucel (hydroxypropylcellulose) (HPC)) was 174 % of control and the T/C (dose: 20.0 mg/kg/injection, schedule: Q01DX009 (ip), vehicle: Klucel (hydroxypropylcellulose) (HPC)) was 179 % of control.
With `[Cl][Pt+2]([Cl])([Cl])[Cl].[NH-]C1CCCCC1.[NH-]C1CCCCC1` the T/C [13] was 124 % of control, the T/C [14] was 111 % of control and the T/C (dose: 25.0 mg/kg/injection, schedule: Q01DX009 (ip), vehicle: other) was 112 % of control. For the same molecule, the T/C (dose: 50.0 mg/kg/injection, schedule: Q01DX009 (ip), vehicle: other) was 103 % of control.
`Cc1ccc2nc(-c3ccc(N=Cc4ccccc4O)cc3)sc2c1` was tested, and the T/C (dose: 25.0 mg/kg/injection, schedule: Q01DX009 (ip), vehicle: olive oil, sesame oil, peanut oil) was 87 % of control and the T/C [10] was 86 % of control.
For `COCC1OC(OC2C3=C(C(C)C)CCC3(C)/C=C3\C(CCC3(O)COC)C(C)C2O)C(O)C2OC3OC12OC3(C)C1CO1` (stereo unspecified), the T/C (dose: 1.5 mg/kg/injection, schedule: Q01DX009 (ip), vehicle: Klucel (hydroxypropylcellulose) (HPC)) was 93 % of control, the T/C (dose: 3.0 mg/kg/injection, schedule: Q01DX009 (ip), vehicle: Klucel (hydroxypropylcellulose) (HPC)) was 89 % of control and the T/C (dose: 6.0 mg/kg/injection, schedule: Q01DX009 (ip), vehicle: Klucel (hydroxypropylcellulose) (HPC)) was 98 % of control. For the same molecule, the T/C (dose: 12.0 mg/kg/injection, schedule: Q01DX009 (ip), vehicle: Klucel (hydroxypropylcellulose) (HPC)) was 91 % of control and the T/C (dose: 24.0 mg/kg/injection, schedule: Q01DX009 (ip), vehicle: Klucel (hydroxypropylcellulose) (HPC)) was 105 % of control.
`Nc1ncnc2c1cnn2C1OC(CO)C(O)C1O` (stereo unspecified) was tested, and the T/C [15] was 113 % of control and the T/C [16] was 109 % of control.
For `Nc1ccc(OC(F)(F)C(F)Cl)cc1` (stereo unspecified), the T/C [8] was 86 % of control, the T/C [6] was 96 % of control and the T/C [9] was 103 % of control.
In the case of `O=S(=O)(O)C1CCC[N-]C1.O=S(=O)(O)C1CCC[N-]C1.[Cl][Pt+2]([Cl])([Cl])[Cl]` (stereo unspecified), the T/C (dose: 6.25 mg/kg/injection, schedule: Q01DX009 (ip), vehicle: saline with Tween-80) is reported as 110 % of control, the T/C [15] is reported as 95 % of control and the T/C [16] is reported as 103 % of control. The T/C [11] was 106 % of control and the T/C [12] was 105 % of control.
With `O=C(CCN1CCCCCCC1)c1cccc([N+](=O)[O-])c1` the T/C [7] was 100 % of control and the T/C [8] was 97 % of control.
For `COC1C(O)=C2C(=O)OC(C)(O)/C=C/C=C\C=C/C=C/C(c3ccccc3)NC(=O)/C=C/C=C/C=C/C=C/C2(C)C1O` (stereo unspecified), the T/C (dose: 0.39 mg/kg/injection, schedule: Q01DX009 (ip), vehicle: Klucel (hydroxypropylcellulose) (HPC)) was 103 % of control, the T/C (dose: 0.78 mg/kg/injection, schedule: Q01DX009 (ip), vehicle: Klucel (hydroxypropylcellulose) (HPC)) was 104 % of control and the T/C (dose: 1.56 mg/kg/injection, schedule: Q01DX009 (ip), vehicle: Klucel (hydroxypropylcellulose) (HPC)) was 96 % of control. The T/C (dose: 1.56 mg/kg/injection, schedule: Q01DX009 (ip), vehicle: other) was 104 % of control, the T/C (dose: 3.12 mg/kg/injection, schedule: Q01DX009 (ip), vehicle: Klucel (hydroxypropylcellulose) (HPC)) was 106 % of control and the T/C (dose: 3.12 mg/kg/injection, schedule: Q01DX009 (ip), vehicle: other) was 103 % of control. For the same molecule, the T/C [13] was 101 % of control and the T/C [14] was 97 % of control.
In the case of `Clc1cccc(/C=C2\c3cc(Cl)ccc3-c3c(Cl)cc(Cl)cc32)c1`, the T/C (dose: 200.0 mg/kg/injection, schedule: Q01DX009 (ip), vehicle: saline with Tween-80) is reported as 100 % of control, the T/C (dose: 400.0 mg/kg/injection, schedule: Q01DX009 (ip), vehicle: saline with Tween-80) is reported as 97 % of control and the T/C (dose: 800.0 mg/kg/injection, schedule: Q01DX009 (ip), vehicle: saline with Tween-80) is reported as 93 % of control.
